Data: patent publication US9296725B2, “Heterocyclyl pyrimidine analogues as TYK2 inhibitors” (Cellzome Limited, priority 2012, dated 2016)
Read-outs that look alike come from different tables or passages of the source.

Columns and labels:
TYK2 = molecular target: T1, TYK2 (Homo sapiens, UniProt P29597); assay: Kinobeads assay, TYK2 (competition binding in mixed Molt4/Ramos cell lysate, dot blot detection)
T1 construct: endogenous in cells; host or cells: Molt4 (ATCC CRL-1582) and Ramos (ATCC CRL-1596), mixed lysate 1:2
Procedure, shortened: (§1)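 Competition binding: compound dilutions (1:3 series, 9 steps) plus immobilized aminopyrido-pyrimidine beads incubated 3 h in the cold with mixed Molt4/Ramos lysate (1:2) at 10 mg/mL protein. Bead-bound JAK2/TYK2 eluted and quantified by antibody dot blot with infrared detection; IC50 from dose-response curves.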

JAK2 = molecular target: T2, JAK2 (Homo sapiens, UniProt O60674); assay: Kinobeads assay, JAK2 (competition binding in mixed Molt4/Ramos cell lysate, dot blot detection); conditions: read-out: JAK2 Band (Kinobeads assay potency, IC50)
T2 construct: endogenous in cells; host or cells: Molt4 (ATCC CRL-1582) and Ramos (ATCC CRL-1596), mixed lysate 1:2
Procedure, shortened: as §1

[1] = Kinobeads assay, Molt4/Ramos lysate, read-out: TYK2 Band (Kinobeads assay potency, IC50)

T2 sequence (O60674 whole entry): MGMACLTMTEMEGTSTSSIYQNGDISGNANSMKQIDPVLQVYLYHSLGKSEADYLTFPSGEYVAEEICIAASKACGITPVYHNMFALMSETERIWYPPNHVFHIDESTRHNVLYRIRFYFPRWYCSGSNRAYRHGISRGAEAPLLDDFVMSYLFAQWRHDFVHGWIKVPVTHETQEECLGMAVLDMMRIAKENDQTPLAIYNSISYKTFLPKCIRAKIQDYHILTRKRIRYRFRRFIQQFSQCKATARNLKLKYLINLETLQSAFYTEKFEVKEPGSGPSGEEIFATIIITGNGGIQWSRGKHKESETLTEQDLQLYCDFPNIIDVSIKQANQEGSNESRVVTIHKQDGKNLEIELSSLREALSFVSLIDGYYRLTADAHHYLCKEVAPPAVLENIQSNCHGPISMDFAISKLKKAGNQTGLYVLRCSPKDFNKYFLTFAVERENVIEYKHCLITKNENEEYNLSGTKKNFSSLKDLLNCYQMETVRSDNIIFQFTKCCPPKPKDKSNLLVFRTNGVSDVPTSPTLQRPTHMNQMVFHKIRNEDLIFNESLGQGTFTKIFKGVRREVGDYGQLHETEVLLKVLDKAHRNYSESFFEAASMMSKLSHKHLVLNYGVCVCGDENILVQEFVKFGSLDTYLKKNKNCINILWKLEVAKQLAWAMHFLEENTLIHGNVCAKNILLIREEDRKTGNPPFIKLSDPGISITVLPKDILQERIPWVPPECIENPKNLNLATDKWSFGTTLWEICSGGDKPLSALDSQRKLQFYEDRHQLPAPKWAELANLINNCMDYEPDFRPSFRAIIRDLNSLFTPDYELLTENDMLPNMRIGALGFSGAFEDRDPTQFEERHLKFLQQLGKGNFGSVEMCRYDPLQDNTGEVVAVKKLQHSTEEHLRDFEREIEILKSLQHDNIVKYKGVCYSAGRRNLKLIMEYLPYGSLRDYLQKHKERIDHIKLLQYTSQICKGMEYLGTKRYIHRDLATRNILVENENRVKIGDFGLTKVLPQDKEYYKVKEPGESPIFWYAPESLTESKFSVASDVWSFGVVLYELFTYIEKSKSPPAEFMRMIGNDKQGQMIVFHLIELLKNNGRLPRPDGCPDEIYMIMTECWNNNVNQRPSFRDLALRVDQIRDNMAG
T1 sequence (P29597 whole entry): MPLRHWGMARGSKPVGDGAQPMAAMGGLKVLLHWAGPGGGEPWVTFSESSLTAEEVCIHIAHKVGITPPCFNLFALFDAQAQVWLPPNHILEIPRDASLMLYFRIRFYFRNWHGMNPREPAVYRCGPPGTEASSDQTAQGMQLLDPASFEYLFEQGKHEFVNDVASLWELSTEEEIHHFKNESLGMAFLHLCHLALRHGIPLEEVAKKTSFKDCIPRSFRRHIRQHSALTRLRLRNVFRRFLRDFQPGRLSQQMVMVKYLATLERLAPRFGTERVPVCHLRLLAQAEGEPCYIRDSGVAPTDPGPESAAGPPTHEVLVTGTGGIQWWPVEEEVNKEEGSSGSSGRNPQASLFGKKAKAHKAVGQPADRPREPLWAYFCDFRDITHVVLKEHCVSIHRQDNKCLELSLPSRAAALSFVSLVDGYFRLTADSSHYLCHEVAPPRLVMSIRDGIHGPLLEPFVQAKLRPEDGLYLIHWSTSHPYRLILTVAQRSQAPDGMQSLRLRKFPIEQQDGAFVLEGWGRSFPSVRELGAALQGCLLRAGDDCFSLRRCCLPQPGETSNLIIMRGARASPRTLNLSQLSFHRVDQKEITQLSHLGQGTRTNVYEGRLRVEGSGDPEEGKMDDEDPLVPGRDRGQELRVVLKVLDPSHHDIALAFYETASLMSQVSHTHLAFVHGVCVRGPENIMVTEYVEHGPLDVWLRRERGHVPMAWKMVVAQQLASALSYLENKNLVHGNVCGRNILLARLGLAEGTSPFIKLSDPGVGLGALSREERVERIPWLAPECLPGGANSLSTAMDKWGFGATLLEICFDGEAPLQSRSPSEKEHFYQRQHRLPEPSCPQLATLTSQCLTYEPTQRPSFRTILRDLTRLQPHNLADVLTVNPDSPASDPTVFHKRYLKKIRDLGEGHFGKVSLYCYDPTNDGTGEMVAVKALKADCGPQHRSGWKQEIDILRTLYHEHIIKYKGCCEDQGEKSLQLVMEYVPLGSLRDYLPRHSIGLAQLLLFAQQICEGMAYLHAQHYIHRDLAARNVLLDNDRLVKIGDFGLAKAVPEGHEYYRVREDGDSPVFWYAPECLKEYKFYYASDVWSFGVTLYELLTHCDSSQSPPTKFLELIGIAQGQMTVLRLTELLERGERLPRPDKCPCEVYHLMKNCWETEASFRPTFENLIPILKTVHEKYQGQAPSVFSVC

Row | Structure (SMILES) | IC50 (TYK2; [1]) [µM] | IC50 (JAK2) [µM] | IC50 (TYK2; read-out: TYK2 IC50) [µM]
1 | Cc1cnc(Nc2cnn(CC(F)F)c2)nc1NCc1ccccc1S(C)(=O)=O [Example I-478] | 1 to 10 | > 10 | –
2 | Cc1cnc(Nc2cnn(CC(F)F)c2)nc1NCc1cccc(S(C)(=O)=O)c1 [Example I-466] | 0.1 to 1 | 1 to 10 | –
3 | COc1c(F)cc(F)cc1CNc1nc(Nc2cnn(C)c2)ncc1Cl [Example I-276] | 0.1 to 1 | 0.01 to 0.1 | –
4 | Cn1ccnc1Cn1cc(Nc2ncc(Cl)c(NCc3ccccc3)n2)cn1 [Example I-248] | 0.1 to 1 | 1 to 10 | –
5 | CCNC(=O)c1cccc(CNc2nc(Nc3cnn(CCO)c3)ncc2Cl)c1 [Example I-241] | 0.1 to 1 | 1 to 10 | –
6 | OCCn1cc(Nc2ncc(Cl)c(NCc3cccc(F)c3C(F)(F)F)n2)cn1 [Example I-333] | 0.1 to 1 | 1 to 10 | –
7 | CC(C)Oc1cccc(CNc2nc(Nc3cnn(CCO)c3)ncc2Cl)c1 [Example I-334] | 0.1 to 1 | 1 to 10 | –
8 | CNS(=O)(=O)c1ccccc1CNc1nc(Nc2cnn(C)c2)ncc1Cl [Example I-473] | 0.1 to 1 | 0.1 to 1 | –
9 | CC(C)NC(=O)Cn1cc(Nc2nccc(NCc3c(F)cccc3F)n2)cn1 [Example I-62] | 0.01 to 0.1 | > 10 | < 0.1
10 | CS(=O)(=O)c1ccccc1CNc1nc(Nc2cnn(CC(N)=O)c2)ncc1F [Example I-436] | 0.1 to 1 | 1 to 10 | –
11 | CNC(=O)Cn1cc(Nc2ncc(Cl)c(NCc3cccc(OCC#N)c3)n2)cn1 [Example I-364] | 0.1 to 1 | 1 to 10 | –
12 | Cc1cnc(Nc2cnn(CC(=O)O)c2)nc1NCc1c(F)ccc(F)c1F [Example I-424] | 0.01 to 0.1 | 0.1 to 1 | –
13 | CC(O)Cn1cc(Nc2ncc(Cl)c(NCc3c(F)cccc3F)n2)cn1 (stereo not shown) [Example I-209] | 0.01 to 0.1 | 1 to 10 | –
14 | Cc1cnc(Nc2cnn(CC(=O)N(C)C)c2)nc1NCc1c(F)cc(F)cc1F [Example I-19] | 0.01 to 0.1 | 0.1 to 1 | –
15 | Cc1cnc(Nc2cnn(CC(F)(F)F)c2)nc1NCc1cc(F)ccc1F [Example I-353] | 0.1 to 1 | 1 to 10 | –
16 | Fc1ccc(F)c(CNc2nc(Nc3cnn(CC(F)F)c3)ncc2Cl)c1F [Example I-336] | 0.01 to 0.1 | 0.1 to 1 | –
17 | Cn1cc(Nc2nccc(NCc3c(F)cccc3F)n2)cn1 [Example I-312] | 0.1 to 1 | > 10 | –
18 | Cn1cc(Nc2ncc(Cl)c(NCc3cccc(CS(C)(=O)=O)c3)n2)cn1 [Example I-442] | 1 to 10 | 1 to 10 | –
19 | OCCn1cc(Nc2ncc(F)c(NCc3ccccc3F)n2)cn1 [Example I-205] | 0.01 to 0.1 | 1 to 10 | –
20 | CC(C)(C)NC(=O)Cn1cc(Nc2nccc(NCc3c(F)cc(F)cc3F)n2)cn1 [Example I-51] | 0.01 to 0.1 | > 10 | –
21 | Cn1cc(Nc2ncc(Cl)c(NCc3cncc(F)c3)n2)cn1 [Example I-258] | 0.1 to 1 | 0.1 to 1 | –
22 | Cn1cc(Nc2ncc(Cl)c(NCc3cccc(S(N)(=O)=O)c3)n2)cn1 [Example I-198] | 0.1 to 1 | 1 to 10 | –
23 | OCCn1cc(Nc2ncc(Cl)c(NCc3c(F)cccc3-c3cn[nH]c3)n2)cn1 [Example I-265] | 0.1 to 1 | 1 to 10 | –
24 | O=C(Cn1cc(Nc2nccc(NCc3c(F)cc(F)cc3F)n2)cn1)N[C@@H]1CCOC1 [Example I-137] | 0.01 to 0.1 | 1 to 10 | –
25 | COc1cccc(CNc2nc(Nc3cnn(CCO)c3)ncc2Cl)c1 [Example I-186] | 0.1 to 1 | 1 to 10 | –
26 | O=C(O)Cn1cc(Nc2ncc(F)c(NCc3cccc(OC(F)F)c3)n2)cn1 [Example I-425] | 0.01 to 0.1 | > 10 | –
27 | CC1(C)COCCN1C(=O)Cn1cc(Nc2nccc(NCc3c(F)cc(F)cc3F)n2)cn1 [Example I-459] | 0.01 to 0.1 | > 10 | –
28 | Clc1cnc(Nc2cn[nH]c2)nc1NCc1ccccc1 [Example I-201] | 0.1 to 1 | 1 to 10 | –

Next, values leading:

Row | IC50 (TYK2; [1]) [µM] | IC50 (JAK2) [µM] | IC50 (TYK2; read-out: TYK2 IC50) [µM] | Structure (SMILES)
29 | 0.01 to 0.1 | 1 to 10 | – | O=C(Cn1cc(Nc2nccc(NCc3c(F)cc(F)cc3F)n2)cn1)NC1CCOC1 (stereo not shown) [Example I-95]
30 | 0.01 to 0.1 | 1 to 10 | – | CNC(=O)Cn1cc(Nc2ncc(F)c(NCc3c(Cl)cccc3Cl)n2)cn1 [Example I-329]
31 | 0.01 to 0.1 | 0.1 to 1 | – | C[C@H](CO)NC(=O)Cn1cc(Nc2nccc(NCc3c(Cl)ccc(Cl)c3F)n2)cn1 [Example I-131]
32 | 0.01 to 0.1 | 0.1 to 1 | – | CNC(=O)Cn1cc(Nc2ncc(Cl)c(NCc3cc(F)ccc3S(C)(=O)=O)n2)cn1 [Example I-438]
33 | 0.01 to 0.1 | 1 to 10 | – | CC1(C)CN(C(=O)Cn2cc(Nc3ncc(F)c(NCc4c(F)cc(F)cc4F)n3)cn2)CCO1 [Example I-39]
34 | ≤ 0.01 | 0.1 to 1 | – | O=C(Cn1cc(Nc2ncc(Cl)c(NCc3c(F)cccc3F)n2)cn1)N1CCOCC1 [Example I-161]
35 | 0.01 to 0.1 | 1 to 10 | – | CC(C)(C)NC(=O)Cn1cc(Nc2ncc(F)c(NCc3c(F)cc(F)cc3F)n2)cn1 [Example I-429]
36 | 0.01 to 0.1 | 1 to 10 | – | Cc1cnc(Nc2cnn(CCO)c2)nc1NCc1ccc(S(N)(=O)=O)cc1 [Example I-8]
37 | 0.01 to 0.1 | > 10 | – | CNC(=O)Cn1cc(Nc2ncc(F)c(NCc3cccc(OC(F)F)c3)n2)cn1 [Example I-408]
38 | 0.01 to 0.1 | 1 to 10 | – | O=C(Cn1cc(Nc2nccc(NCc3c(F)cc(F)cc3F)n2)cn1)NC1CC1 [Example I-80]
39 | 0.01 to 0.1 | 0.1 to 1 | – | OCCn1cc(Nc2ncc(F)c(NCc3cccc(F)c3)n2)cn1 [Example I-210]
40 | 0.01 to 0.1 | 1 to 10 | – | COc1cc(F)c(CNc2nc(Nc3cnn(CC(N)=O)c3)ncc2C)c(F)c1 [Example I-315]
41 | ≤ 0.01 | 0.1 to 1 | – | Cc1cnc(Nc2cnn(CC(=O)N3CCOCC3)c2)nc1NCc1c(F)cccc1F [Example I-305]
42 | ≤ 0.01 | 1 to 10 | – | COc1ccc(F)c(CNc2nc(Nc3cnn(CC(=O)N(C)C(C)C)c3)ncc2F)c1F [Example I-57]
43 | 0.01 to 0.1 | > 10 | – | N#CCNC(=O)Cn1cc(Nc2nccc(NCc3c(F)cc(F)cc3F)n2)cn1 [Example I-110]
44 | 0.01 to 0.1 | 1 to 10 | – | CCOc1ccc(F)c(CNc2nc(Nc3cn[nH]c3)ncc2Cl)c1F [Example I-368]
45 | 0.01 to 0.1 | 1 to 10 | – | CNC(=O)Cn1cc(Nc2ncc(F)c(NCc3c(F)ccc(OC)c3F)n2)cn1 [Example I-12]
46 | 0.01 to 0.1 | 1 to 10 | – | Cc1cnc(Nc2cnn(CC(=O)N3CCOCC3)c2)nc1NCc1ccccc1 [Example I-296]
47 | 0.01 to 0.1 | 1 to 10 | – | COc1cc(F)c(CNc2nc(Nc3cnn(C)c3)ncc2C)c(F)c1 [Example I-314]
48 | ≤ 0.01 | 1 to 10 | – | Cc1cnc(Nc2cnn(CC(=O)N3CCOCC3)c2)nc1NCc1c(F)cc(F)cc1F [Example I-21]
49 | ≤ 0.01 | 0.1 to 1 | – | CNC(=O)Cn1cc(Nc2ncc(C)c(NCc3c(F)ccc(F)c3F)n2)cn1 [Example I-421]
50 | ≤ 0.01 | 1 to 10 | – | C[C@@H](CO)NC(=O)Cn1cc(Nc2nccc(NCc3c(F)ccc(C#N)c3F)n2)cn1 [Example I-153]
51 | ≤ 0.01 | 0.1 to 1 | – | OCCn1cc(Nc2ncc(F)c(NCc3c(F)ccc(F)c3F)n2)cn1 [Example I-202]
